Measured values reported in PMC6934184, “Selective DNA-PKcs inhibition extends the therapeutic index of localized radiotherapy and chemotherapy” (The Journal of Clinical Investigation, 2019).

Molecular target: T1, EGFR (ErbB1) L858R (Homo sapiens, UniProt P00533, L858R)
T1 construct: purchased Thermo Fisher Scientific (Life Technologies) SelectScreen
Assay: SelectScreen Z'LYTE
Format: biochemical
Outline: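 Compound tested in SelectScreen activity assays, Z'LYTE for CSF1R, CDK1/cyclin B and MAP2K6 and Adapta for CAMK1. ATP for CAMK1 was listed as 10, and Km app was used for CSF1R. Results are expressed in percent.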

T1 sequence (P00533 25-1210 L858R): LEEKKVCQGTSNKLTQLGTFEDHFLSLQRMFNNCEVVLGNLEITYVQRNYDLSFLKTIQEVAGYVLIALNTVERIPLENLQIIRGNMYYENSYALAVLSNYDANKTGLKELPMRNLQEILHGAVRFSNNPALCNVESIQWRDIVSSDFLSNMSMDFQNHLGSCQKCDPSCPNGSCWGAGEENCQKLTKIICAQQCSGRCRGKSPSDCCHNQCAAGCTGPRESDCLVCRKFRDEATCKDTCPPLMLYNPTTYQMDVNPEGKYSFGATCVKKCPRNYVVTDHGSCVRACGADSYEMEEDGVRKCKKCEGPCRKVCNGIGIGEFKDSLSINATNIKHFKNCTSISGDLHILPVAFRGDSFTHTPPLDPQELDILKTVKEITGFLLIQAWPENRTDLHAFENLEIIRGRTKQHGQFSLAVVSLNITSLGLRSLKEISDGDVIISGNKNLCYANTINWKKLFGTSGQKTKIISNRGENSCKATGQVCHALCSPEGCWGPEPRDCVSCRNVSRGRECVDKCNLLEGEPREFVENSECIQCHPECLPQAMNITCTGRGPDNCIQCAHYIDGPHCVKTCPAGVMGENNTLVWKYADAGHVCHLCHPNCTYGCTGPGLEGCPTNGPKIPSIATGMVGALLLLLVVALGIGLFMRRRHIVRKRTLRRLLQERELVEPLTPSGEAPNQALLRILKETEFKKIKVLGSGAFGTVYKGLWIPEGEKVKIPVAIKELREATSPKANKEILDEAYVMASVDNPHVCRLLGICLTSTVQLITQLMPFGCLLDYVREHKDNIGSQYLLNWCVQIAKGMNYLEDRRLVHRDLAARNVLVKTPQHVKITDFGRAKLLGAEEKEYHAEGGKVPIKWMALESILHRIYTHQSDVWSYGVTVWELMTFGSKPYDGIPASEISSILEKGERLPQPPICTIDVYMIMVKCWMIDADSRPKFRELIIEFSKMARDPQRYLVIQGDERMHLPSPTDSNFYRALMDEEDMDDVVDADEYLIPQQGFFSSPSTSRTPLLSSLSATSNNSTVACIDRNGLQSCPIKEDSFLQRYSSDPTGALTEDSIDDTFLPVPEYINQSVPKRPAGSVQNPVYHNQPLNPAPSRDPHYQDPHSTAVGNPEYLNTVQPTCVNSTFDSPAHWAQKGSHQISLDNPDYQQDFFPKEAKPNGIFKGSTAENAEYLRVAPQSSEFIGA

SMILES: CN(C(=O)CN1CCOCC1)c1ccc2sc3c(-c4cccc5c(=O)cc(N6CC7CCC(C6)O7)oc45)cccc3c2c1 [NU5455]
- inhibition at 1 µM: -15%
